# Measurements taken from patent WO2019242687A1, “1,3-dioxane-4,6-dione compound, and preparation method, pharmaceutical composition, and application thereof” (Shanghai Institute of Materia Medica of CAS, priority 2018, dated 2018).
# Where a chain is given by its changes, count along the chain named. Entries after “also recorded” stand apart in the source; their conditions may differ.
# Legend:
# Assay type in all cases: biochemical
# SIRT1 F414A = molecular target: T1, SIRT1 F414A (Homo sapiens, UniProt Q96EB6, F414A); assay: Inhibitory constant on SIRT1 mutant F414A
# T1 construct: made in house
# T1 sequence (Q96EB6 1-747 F414A): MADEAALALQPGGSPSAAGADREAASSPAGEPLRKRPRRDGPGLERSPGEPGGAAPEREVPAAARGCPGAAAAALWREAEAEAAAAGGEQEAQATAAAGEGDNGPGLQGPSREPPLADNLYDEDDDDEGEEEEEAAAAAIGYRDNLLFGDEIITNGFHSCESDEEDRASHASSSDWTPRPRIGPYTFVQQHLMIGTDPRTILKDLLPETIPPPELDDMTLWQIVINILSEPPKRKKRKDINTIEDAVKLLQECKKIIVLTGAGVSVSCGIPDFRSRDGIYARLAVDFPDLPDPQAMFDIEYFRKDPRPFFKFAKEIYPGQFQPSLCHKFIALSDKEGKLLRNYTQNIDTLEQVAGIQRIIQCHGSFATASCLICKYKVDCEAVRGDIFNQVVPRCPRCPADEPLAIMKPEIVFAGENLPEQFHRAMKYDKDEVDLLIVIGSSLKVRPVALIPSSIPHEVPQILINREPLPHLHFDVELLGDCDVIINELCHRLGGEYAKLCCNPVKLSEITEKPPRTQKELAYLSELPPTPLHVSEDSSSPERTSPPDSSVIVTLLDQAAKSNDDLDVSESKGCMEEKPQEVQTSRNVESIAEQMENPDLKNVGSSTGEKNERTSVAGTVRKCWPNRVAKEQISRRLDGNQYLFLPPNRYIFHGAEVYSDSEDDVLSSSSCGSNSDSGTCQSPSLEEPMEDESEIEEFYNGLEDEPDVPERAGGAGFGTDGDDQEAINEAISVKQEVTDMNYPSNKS
# SIRT1 N346A = molecular target: T2, SIRT1 N346A (Homo sapiens, UniProt Q96EB6, N346A); assay: Inhibitory constant on SIRT1 mutant N346A
# T2 construct: made in house
# T2 sequence (Q96EB6 1-747 N346A): T1 sequence (Q96EB6 1-747 F414A) with N346A, A414F
# SIRT1 [1] = molecular target: T3, SIRT1 (Homo sapiens, UniProt Q96EB6); assay: SIRT1 enzyme activity test (deacetylase inhibition)
# T3 sequence (Q96EB6 1-747): T1 sequence (Q96EB6 1-747 F414A) with A414F
# SIRT1 [2] = molecular target: T3, SIRT1; assay: Enzyme kinetic reaction test (inhibition type, Michaelis-Menten and Lineweaver-Burk plots)
# [3] = fixed Abz polypeptide, with increasing S3 concentration
# [4] = fixed NAD+, with increasing S3 concentration
smiles,measurement,setting,value
"COc1cc(C=C2C(=O)OC(c3ccccc3)OC2=O)cc(Br)c1O (stereo not shown) [Compound S3, 5-(3-bromo-4-hydroxy-5-methoxybenzylidene) -2-phenyl-1,3-dioxane-4,6-dione]",Ki,SIRT1 F414A,25500 nM
same,effect of mutation on inhibitory activity of compound,SIRT1 F414A; compared with the other mutants,影响最大
same,Ki,SIRT1 N346A; mutant N346A,2470 nM
same,sensitivity of mutant protein to compound S3,SIRT1 N346A; mutation of residue 346 (so in the source),敏感性降低
same,concentration dependence of SIRT1 inhibition,"SIRT1 [1]; Figure 1, in vitro",以浓度依赖性方式抑制SIRT1酶活; also recorded: inhibits SIRT1 activity in a concentration-dependent manner
same,IC50,"SIRT1 [1]; Table 2, 1 μM SIRT1, 500 μM NAD+, 10 μM substrate peptide, 37 °C, 30 min",1310 ± 260 nM
same,Inhibition of SIRT1 deacylation (IC50),"SIRT1 [1]; Table 3, SITR1 [sic], 1 μM SIRT1, 500 μM NAD+, 10 μM substrate peptide",1.31 ± 0.26
same,apparent Michaelis constant Km′ for NAD+,SIRT1 [2]; [3],不变
same,"initial velocity V0, NAD+ varied",SIRT1 [2]; [3],减小
same,apparent Michaelis constant Km′ for Abz polypeptide,SIRT1 [2]; [4],减小
same,"initial velocity V0, substrate Abz polypeptide varied",SIRT1 [2]; [4],减小
same,type of inhibition toward NAD+,"SIRT1 [2]; fixed acetylated peptide 30 μM, varied NAD+ 31.25-1000 μM, 0.5 μM SIRT1",非竞争性抑制; also recorded: NAD +的非竞争性抑制剂
same,binding site of compound on SIRT1 relative to substrate polypeptide and NAD+ sites,SIRT1 [2]; inferred from kinetics,可能在底物多肽的结合位点; also recorded: 不在NAD +的结合位点
